Results taken from patent publication US9938269B2, “Inhibitor compounds of phosphodiesterase type 10A” (ABBVIE INC., priority 2011, dated 2018).
pIC50: −log10 of the molar value. Counter-ions that a name gives are not always drawn.

Legend:
[1] = Determination of the microsomal half-life, human liver microsomes; conditions: for microsomal CLint at 0.5 μM: human, liver microsomes, pH 7.4
[2] = Determination of the microsomal half-life, rat liver microsomes; conditions: rat, liver microsomes, pH 7.4
PDE10A (human) = molecular target: T1, PDE10A (human) (Homo sapiens, UniProt Q9Y233); test: Measurement of PDE activity (HTRF cAMP kit), human PDE10A; type: biochemical; conditions: PDE enzymatic reaction, substrate 20 nM for PDE10, 60 minutes at 29 C
T1 construct: purchased BPS Bioscience
T1 sequence (Q9Y233 whole entry): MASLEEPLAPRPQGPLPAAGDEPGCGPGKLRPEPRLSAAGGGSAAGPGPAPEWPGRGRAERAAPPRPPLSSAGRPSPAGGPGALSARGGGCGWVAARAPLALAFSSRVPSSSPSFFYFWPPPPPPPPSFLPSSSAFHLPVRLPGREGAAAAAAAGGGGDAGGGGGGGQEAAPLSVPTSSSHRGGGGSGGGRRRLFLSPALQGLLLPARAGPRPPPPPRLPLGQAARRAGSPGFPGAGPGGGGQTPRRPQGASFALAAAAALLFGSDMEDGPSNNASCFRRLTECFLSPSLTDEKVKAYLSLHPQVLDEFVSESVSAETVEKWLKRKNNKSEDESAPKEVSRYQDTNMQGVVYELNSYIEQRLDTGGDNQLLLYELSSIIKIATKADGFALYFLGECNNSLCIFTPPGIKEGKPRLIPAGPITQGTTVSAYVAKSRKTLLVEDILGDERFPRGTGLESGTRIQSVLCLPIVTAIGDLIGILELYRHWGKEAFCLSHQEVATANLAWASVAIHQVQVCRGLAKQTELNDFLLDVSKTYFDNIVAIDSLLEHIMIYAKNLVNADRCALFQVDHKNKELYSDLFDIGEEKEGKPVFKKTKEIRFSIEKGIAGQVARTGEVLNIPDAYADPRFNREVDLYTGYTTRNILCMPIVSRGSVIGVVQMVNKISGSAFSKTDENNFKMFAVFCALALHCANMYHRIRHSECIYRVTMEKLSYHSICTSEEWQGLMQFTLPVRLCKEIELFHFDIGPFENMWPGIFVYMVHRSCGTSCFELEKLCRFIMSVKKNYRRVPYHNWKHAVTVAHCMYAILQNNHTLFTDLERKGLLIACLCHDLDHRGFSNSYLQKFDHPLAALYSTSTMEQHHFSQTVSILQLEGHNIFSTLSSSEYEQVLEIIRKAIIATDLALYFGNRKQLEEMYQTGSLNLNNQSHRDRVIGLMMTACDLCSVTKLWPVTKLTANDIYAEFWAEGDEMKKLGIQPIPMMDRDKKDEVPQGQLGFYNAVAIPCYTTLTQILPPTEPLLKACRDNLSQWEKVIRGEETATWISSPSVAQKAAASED
How it was run: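 HTRF detection of cAMP left after hydrolysis, expressed as percent of uninhibited control to derive IC50. Reaction: serially diluted inhibitor mixed with recombinant enzyme, started with 20 nM cAMP, 60 min at 29 °C in Tris-HCl pH 7.5 buffer containing MgCl2 and BSA.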

microsomal CLint at 0.5 μM [1] [µL/min/mg] | microsomal CLint at 0.5 μM [2] [µL/min/mg] | pIC50 (PDE10A (human)) | Human mCl (mikrosomal clearance) ([1]; human liver microsomes, 0.5 μM test substance, 0.25 mg microsomal protein, pH 7.4, 37° C., NADPH) | SMILES
< 100 | < 100 | 6.30 to 6.70 |  | O=C1c2cccc(N3CCS(=O)(=O)CC3)c2CN1CCc1ccc2ccccc2n1 [Example 131, 4-(1,1-Dioxo-1-thiomorpholin-4-yl)-2-(2-quinolin-2-yl-ethyl)-2,3-dihydro-isoindol-1-one]
100 to 220 | < 100 | > 7.00 |  | O=C1c2c(N3CC4COCC4C3)ccnc2CN1CCc1nc2ccccc2s1 (stereo not drawn) [compound 426, 4-(1,3,3a,4,6,6a-Hexahydrofuro[3,4-c]pyrrol-5-yl)-6-[2-(1,3-benzothiazol-2-yl)ethyl]-7H-pyrrolo[3,4-b]pyridin-5-one]
< 100 | < 100 | > 7.00 |  | COc1ccc(-c2cncnc2)c2c1CN(CCc1cn3ccccc3n1)C2=O [Example 217, 2-(2-Imidazo[1,2-a]pyridin-2-yl-ethyl)-4-methoxy-7-pyrimidin-5-yl-2,3-dihydro-isoindol-1-one trifluoroacetate]
< 100 | < 100 | 6.70 to 7.00 |  | O=C1c2c(N3CCOCC3)ccnc2CN1CCc1nc2ccccc2o1 [compound 417, 6-[2-(1,3-Benzoxazol-2-yl)ethyl]-4-morpholino-7H-pyrrolo[3,4-b]pyridin-5-one]
< 100 | < 100 | > 7.00 |  | O=C1c2c(NC3COC3)ccnc2CN1CCc1ccc2ccccc2n1 [Example 275, 4-(Oxetan-3-ylamino)-6-(2-quinolin-2-yl-ethyl)-6,7-dihydro-pyrrolo[3,4-b]pyridin-5_]
< 100 | < 100 | 6.70 to 7.00 |  | O=C1c2nccc(-c3cncnc3)c2CN1CCc1ccc2ccccc2n1 [compound 467, 4-Pyrimidin-5-yl-6-[2-(2-quinolyl)ethyl]-5H-pyrrolo[3,4-b]pyridin-7-one]
< 100 | < 100 | > 7.00 |  | O=C1c2c(cccc2N2CCS(=O)(=O)CC2)CN1CCc1cn2ccccc2n1 [Example 234, 7-(1,1-Dioxothiomorpholin-4-yl)-2-(2-imidazo[1,2-a]pyridin-2-yl-ethyl)-2,3-dihydro-isoindol-1-one]
< 100 | > 220 | > 7.00 |  | COc1ccc(-c2cc[nH]n2)c2c1C(=O)N(CCc1nc3ccccc3s1)C2 [compound 400, 2-[2-(1,3-Benzothiazol-2-yl)ethyl]-7-methoxy-4-(1H-pyrazol-3-yl)isoindolin-1-one]
< 100 | < 100 | > 7.00 |  | COc1ccc(-c2cn[nH]c2)c2c1CN(CCc1cn3ccccc3n1)C2=O [Example 372, 2-(2-Imidazo[1,2-a]pyridin-2-yl-ethyl)-4-methoxy-7-(1H-pyrazol-4-yl)-2,3-dihydro-isoindol-1-one]
< 100 | < 100 | > 7.00 |  | COc1ccc(-c2ccncc2)c2c1CN(CCc1cn3ccccc3n1)C2=O [Example 374, 2-(2-Imidazo[1,2-a]pyridin-2-yl-ethyl)-4-methoxy-7-pyridin-4-yl-2,3-dihydro-isoindol-1-one]
< 100 | 100 to 220 | 6.70 to 7.00 |  | COc1ccc(-c2ccnc3c2C(=O)N(CCc2nc4ccccc4s2)C3)cc1 [compound 541, 6-[2-(1,3-Benzothiazol-2-yl)ethyl]-4-(4-methoxyphenyl)-7H-pyrrolo[3,4-b]pyridin-5-one trifluoroacetate]
< 100 | < 100 | 6.30 to 6.70 |  | O=C1c2nccc(-c3ccncc3)c2CN1CCc1cn2ccccc2n1 [compound 452, 6-(2-Imidazo[1,2-a]pyridin-2-yl-ethyl)-4-pyridin-4-yl-5,6-dihydro-pyrrolo[3,4-b]pyridin-7-one]
< 100 | < 100 | > 7.00 |  | O=C1c2c(N3CCOCC3)ccnc2CN1CCc1cn2cc(F)ccc2n1 [compound 493, 6-[2-(6-Fluoroimidazo[1,2-a]pyridin-2-yl)ethyl]-4-morpholino-7H-pyrrolo[3,4-b]pyridin-5-one trifluoroacetate]
< 100 | < 100 | > 7.00 |  | O=C1c2c(-c3cccnc3)ccnc2CN1CCc1nc2ccccc2s1 [compound 430, 6-[2-(1,3-Benzothiazol-2-yl)ethyl]-4-(3-pyridyl)-7H-pyrrolo[3,4-b]pyridin-5-one trifluoroacetate]
< 100 | < 100 | > 7.00 |  | COc1ccnc2c1C(=O)N(CCc1ccc3ccccc3n1)C2 [compound 528, 4-Methoxy-6-(2-quinolin-2-yl-ethyl)-6,7-dihydro-pyrrolo[3,4-b]pyridin-5-one]
< 100 | 100 to 220 | > 7.00 |  | O=C1c2c(cccc2-c2ccc3[nH]c(=O)[nH]c3c2)CN1CCc1ccc2ccccc2n1 [Example 9, 5-[3-oxo-2-(2-quinolin-2-yl-ethyl)-2,3-dihydro-1H-isoindol-4-yl]-1,3-dihydro-benzoimidazol-2-one trifluoroacetate]
< 100 | < 100 | 6.70 to 7.00 |  | O=C1c2c(cccc2N2CCOCC2)CN1CCc1cnc2ccccc2n1 [compound 482, 7-Morpholino-2-(2-quinoxalin-2-ylethyl)isoindolin-1-one]
100 to 220 | < 100 | > 7.00 |  | O=C1c2c(cccc2-c2ccc3nn[nH]c3c2)CN1CCc1ccc2ccccc2n1 [Example 10, 7-(3H-Benzotriazol-5-yl)-2-(2-quinolin-2-yl-ethyl)-2,3-dihydro-isoindol-1-one trifluoroacetate]
100 to 220 | 100 to 220 | 6.30 to 6.70 |  | CN(C)Cc1ccc(-c2cccc3c2C(=O)N(CCc2ccc4ccccc4n2)C3)cc1 [Example 188, 7-(4-Dimethylaminomethyl-phenyl)-2-(2-quinolin-2-yl-ethyl)-2,3-dihydro-isoindol-1-one (dihydrochloride)]
< 100 | < 100 | > 7.00 |  | O=C1c2c(cccc2-c2cncnc2)CN1CCc1nc2ccccc2[nH]1 [Example 312, 2-[2-(1H-Benzoimidazol-2-yl)-ethyl]-7-pyrimidin-5-yl-2,3-dihydro-isoindol-1-one trifluoroacetate]
< 100 | < 100 | > 7.00 |  | O=C1c2c(N3CCOCC3)ccnc2CN1CCc1nc2ccccn2n1 [Example 227, 4-Morpholin-4-yl-6-(2-[1,2,4]triazolo[1,5-a]pyridin-2-yl-ethyl)-6,7-dihydro-pyrrolo[3,4-b]pyridin-5-one]
 | < 100 | > 7.00 | ◯ | O=C1c2c(N3CCOCC3)ccnc2CN1CCc1cn2ccsc2n1 [compound 425, 6-(2-Imidazo[2,1-b]thiazol-6-ylethyl)-4-morpholino-7H-pyrrolo[3,4-b]pyridin-5-one]
100 to 220 | > 220 | > 7.00 |  | O=C1c2c(N3CCOCC3)ccnc2CN1CCc1ccc(-c2ccccc2)cn1 [compound 486, 4-Morpholino-6-[2-(5-phenyl-2-pyridyl)ethyl]-7H-pyrrolo[3,4-b]pyridin-5-one]
< 100 | 100 to 220 | > 7.00 |  | O=C1c2c(-c3ccoc3)ccnc2CN1CCc1nc2ccccc2s1 [compound 422, 6-[2-(1,3-Benzothiazol-2-yl)ethyl]-4-(3-furyl)-7H-pyrrolo[3,4-b]pyridin-5-one trifluoroacetate]
< 100 | < 100 | > 7.00 |  | O=C1c2c(cccc2-c2ccc3[nH]c(=O)[nH]c3c2)CN1CCc1cn2ccccc2n1 [Example 245, 5-[2-(2-Imidazo[1,2-a]pyridin-2-yl-ethyl)-3-oxo-2,3-dihydro-1H-isoindol-4-yl]-1,3-dihydro-benzoimidazol-2-one]
< 100 | < 100 | > 7.00 |  | O=C1c2c(N3CCOCC3)ccnc2CN1CCc1cnc2ccccc2n1 [compound 495, 4-Morpholino-6-(2-quinoxalin-2-ylethyl)-7H-pyrrolo[3,4-b]pyridin-5-one trifluoroacetate]
100 to 220 | < 100 | > 7.00 |  | Cc1ccc2c(c1)nc(CCN1Cc3nccc(-c4ccncc4)c3C1=O)n2C [compound 536, 6-[2-(1,5-Dimethyl-1H-benzoimidazol-2-yl)-ethyl]-4-pyridin-4-yl-6,7-dihydro-pyrrolo[3,4-b]pyridin-5-one]
< 100 | 100 to 220 | > 7.00 |  | O=C1c2c(-c3ccoc3)ccnc2CN1CCc1cn2cc(F)ccc2n1 [compound 526, 6-[2-(6-Fluoroimidazo[1,2-a]pyridin-2-yl)ethyl]-4-(3-furyl)-7H-pyrrolo[3,4-b]pyridin-5-one]
100 to 220 | 100 to 220 | > 7.00 |  | COc1cccc(CCN2Cc3nccc(-c4ccncc4)c3C2=O)n1 [compound 553, 6-[2-(6-Methoxy-2-pyridyl)ethyl]-4-(4-pyridyl)-7H-pyrrolo[3,4-b]pyridin-5-one]
< 100 | < 100 | > 7.00 |  | COc1cccc(CCN2Cc3nccc(N4CCOCC4)c3C2=O)n1 [compound 483, 6-[2-(6-Methoxy-2-pyridyl)ethyl]-4-morpholino-7H-pyrrolo[3,4-b]pyridin-5-one]
